From US8492347B2, “Peptide for induction of immune tolerance as treatment for systemic lupus erythematosus” (The Regents of the University of California, priority 2007, dated 2013)
Where no end group is shown, it is not given here. [ ]: non-standard residue; d: D form.

Assays:
BWF1 mice = assay: cytokine and Foxp3 mRNA in mesenteric lymph nodes after peptide feeding; assay type: in vivo; conditions: mesenteric lymph nodes one week after feeding
Protocol: Cytokine measurement in the supernatant of cultured spleen cells was done with BD OptEIA™ ELISA kits (BD Biosciences and Bio legends Inc., San Diego, Calif.) for IFNγ, IL-2, TGFβ and IL-10. Intracellular mRNA encoding IFNγ, IL-10, Foxp3 and TGFβ was analyzed by real-time RT PCR. GAPDH was used as a house-keeping gene for normalization.
Real-time PCR was analyzed according to art accepted protocols (see, e.g. Hahn et al., Ann NY Acad Sci 2005; 1051:433-41). Briefly, total RNA was isolated with TRIzol (Invitrogen Life Technologies, Carlsbad, Calif.) as per manufacturer's protocol. Reverse transcription used 50 ng of total RNA. The oligonucleotide sequences used for the primers and TaqMan probes are as follows; IFN-γ forward, 5′ TGA GAC AGA AGT TCT GGG CTTCT 3′ (SEQ ID NO: 9); reverse, 5′ CAAGAT GCA GTG TGT AGC GTTCA 3′ (SEQ ID NO: 10): probe, 6FAM TCC TGCGGCCTAGCTCTGAGA TAMRA (SEQ ID NO: 11). IL-10 forward, 5′ CAGCCGGGAAGACAATAACTG 3′ (SEQ ID NO: 12); reverse, 5′ CCGCAGCTCTAGGAGCATGT 3′ (SEQ ID NO: 13); probe 6FAM ACCCACTTCCCAGTCGGCCAGAG TAMRA. TGFβ forward, 5′ AAACGGAAGCGCATCGAA 3′ (SEQ ID NO: 14); reverse, 5′ […] 3′ (SEQ ID NO: 15), probe 6FAM […] TAMRA (SEQ ID NO: 16). Foxp3 forward, 5′[…] 3′ (SEQ ID NO: 17); reverse, 5′ […] 3′ (SEQ ID NO: 18); probe 6FAM […] TAMRA (SEQ ID NO: 19). The amplification primers were at 900 nM and the probe at 200 nM. A passive reference dye (ROX) provided an internal standard for normalization of FAM fluorescence, correcting for fluctuations due to volume changes. For relative quantitation, a standard curve was constructed for each primer and probe set, using total RNA. RNA was isolated from spleen cells of 10-13 week-old naïve or tolerized mice. Spleen cells from 2 to 3 mice in each group were pooled for each experimental group. For some experiments, CD4^+ and CD8^+ cells were isolated by positive selection using micro beads with Miltenyi AutoMACS as described above. A ribosomal RNA control primer and probe set (Applied Biosystems) were used for normalization purposes. […]

[1] = tested on: naïve BWF1 CD4+ CD25− helper T cells cultured with naïve BWF1 B cells; assay: anti-DNA antibody-forming cells in cultures of BWF1 B cells plus CD4+ CD25− helper T cells after i.v. peptide; assay type: in vivo, mice
Protocol: FIG. 1 provides a bar graph of data showing that the intravenous administration of either 500 or 250 ug of D-pCons is effective in suppressing anti-DNA antibody production by naïve BWF1 CD4+ CD25− helper T cells cultured with naïve BWF1 B cells. The numbers of splenic B cells making IgG anti-DNA dropped from 65 per 10^6 B cells in the untreated group to 30-32 in the tolerized groups.
FIG. 2 provides a bar graph of data from studies of L-pCons and D-pCons. Both D-pCons and L-pCons peptides were given once i.v. and spleen cells harvested 2 weeks later. Note that for L-pCons, the combination of naïve B cells plus CD4+ CD25− helper T cells gave a mean of 160 anti-DNA antibody-forming cells per 10^6 B cells (column 3), whereas addition of CD4+ CD25+ Treg from tolerized mice to the culture reduced the AFC to 25 per 10^6 B cells (column 4). These differences were statistically significant, p<0.001. Note also that the suppression was abrogated by incubation of the cultures with antibodies to GITR (column 6) or TGFb-LAP (column 7), but not by CTLA4-Ig (column 8).
For tolerance induction, ten-to-twelve week-old BWF1 mice received a single i.v. dose of 1 mg of one of the peptides, dissolved in saline, as reported previously (see, e.g. Singh et al., J Clin Invest 1995; 96:2990-6). Controls in selected experiments were either treated with saline or control peptides.
Assays were performed to measure anti-DNA Ab according to art accepted protocols (see, e.g. Singh et al., J Clin Invest 1995; 96:2990-6; Hahn et al., Arthritis Rheum 2001; 44:432-41; La Cava et al., J Immunol 2004; 173:3542-8; Hahn et al., Ann NY Acad Sci 2005; 1051:433-41; Hahn et al., J Immunol 2005; 175:7728-37; Singh et al., J Immunol 2007; 178:7649-57). […] After 5 days, culture supernatants were collected, concentrated, and analyzed for anti-DNA IgG by ELISA. […]

| Sequence | mRNA pattern: increase in Foxp3 and TGFb with decrease in IFNg (BWF1 mice; high dose 250 ug fed, listed as D-peptide) | suppression of anti-DNA antibody production ([1]; 125 ug dose i.v.) | numbers of splenic B cells making IgG anti-DNA ([1]; 500 or 250 ug i.v. (tolerized groups), untreated group 65) | mRNA pattern: increase in Foxp3 and TGFb with decrease in IFNg (BWF1 mice; high dose 250 ug fed, listed as L-peptide) | mRNA pattern: increase in Foxp3 and TGFb with decrease in IFNg (BWF1 mice; middle dose 100 ug fed, listed as L-peptide) | anti-DNA antibody-forming cells (AFC) ([1]; peptide once i.v., spleen cells 2 weeks later, CD4+ CD25+ Treg from tolerized mice added to culture, 160 without Treg, p<0.001) |
| --- | --- | --- | --- | --- | --- | --- |
| FIEWNKLRFRQGLEW ([dF][dI][dE][dW][dN][dK][dL][dR][dF][dR][dQ]G[dL][dE][dW]) [D-pCons] | All desired features | not effective in inducing suppression | 30-32 per 10^6 B cells | – | – | – |
| FIEWNKLRFRQGLEW [L-pCons] | – | – | – | all desired features | all desired features | 25 per 10^6 B cells |
